Measured values: patent publication US12581252B2, “Substituted pyrrolo[3,4-b]pyridines as PI3K-α inhibitors” (Relay Therapeutics, Inc., priority 2020, dated 2026)

What was measured:
cells = conditions: Homo sapiens, MCF-10A, read-out: MCF10A IC50
H1047R PIK3CA enzyme = H1047R PIK3CA enzyme (Homo sapiens, UniProt P42336, H1047R); experiment: ADP-Glo Biochemical PIK3CA Kinase Assay
Sequence of H1047R PIK3CA enzyme (P42336 whole entry H1047R): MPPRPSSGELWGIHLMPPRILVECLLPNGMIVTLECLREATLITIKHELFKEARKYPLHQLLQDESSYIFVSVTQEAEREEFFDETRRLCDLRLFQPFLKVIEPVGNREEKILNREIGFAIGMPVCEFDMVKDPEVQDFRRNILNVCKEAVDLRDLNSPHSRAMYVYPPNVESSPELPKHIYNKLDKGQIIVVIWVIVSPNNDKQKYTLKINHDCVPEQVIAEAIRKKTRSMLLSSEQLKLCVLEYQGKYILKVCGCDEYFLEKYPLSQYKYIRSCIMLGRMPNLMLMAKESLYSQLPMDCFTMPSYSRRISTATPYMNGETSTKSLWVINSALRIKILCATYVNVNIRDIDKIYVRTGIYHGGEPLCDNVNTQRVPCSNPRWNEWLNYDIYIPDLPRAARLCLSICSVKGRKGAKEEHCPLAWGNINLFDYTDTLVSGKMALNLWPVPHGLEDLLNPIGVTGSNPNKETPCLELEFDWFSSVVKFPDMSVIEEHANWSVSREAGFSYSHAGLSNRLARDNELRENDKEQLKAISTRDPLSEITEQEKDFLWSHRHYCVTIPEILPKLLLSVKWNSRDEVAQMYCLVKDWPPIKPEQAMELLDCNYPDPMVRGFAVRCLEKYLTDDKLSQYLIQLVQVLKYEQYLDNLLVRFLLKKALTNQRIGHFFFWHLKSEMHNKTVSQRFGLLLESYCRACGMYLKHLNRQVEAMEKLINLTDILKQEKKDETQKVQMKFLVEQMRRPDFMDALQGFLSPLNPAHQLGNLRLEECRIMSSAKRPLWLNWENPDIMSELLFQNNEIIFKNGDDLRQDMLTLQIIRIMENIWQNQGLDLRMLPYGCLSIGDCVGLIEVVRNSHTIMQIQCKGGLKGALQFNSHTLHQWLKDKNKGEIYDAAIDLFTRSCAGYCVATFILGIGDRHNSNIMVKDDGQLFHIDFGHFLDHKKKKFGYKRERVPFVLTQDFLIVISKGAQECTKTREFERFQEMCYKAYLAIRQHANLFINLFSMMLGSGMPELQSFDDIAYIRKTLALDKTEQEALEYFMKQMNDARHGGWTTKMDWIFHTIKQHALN
Sequence of H1047R PIK3CA enzyme (P27986 whole entry partner): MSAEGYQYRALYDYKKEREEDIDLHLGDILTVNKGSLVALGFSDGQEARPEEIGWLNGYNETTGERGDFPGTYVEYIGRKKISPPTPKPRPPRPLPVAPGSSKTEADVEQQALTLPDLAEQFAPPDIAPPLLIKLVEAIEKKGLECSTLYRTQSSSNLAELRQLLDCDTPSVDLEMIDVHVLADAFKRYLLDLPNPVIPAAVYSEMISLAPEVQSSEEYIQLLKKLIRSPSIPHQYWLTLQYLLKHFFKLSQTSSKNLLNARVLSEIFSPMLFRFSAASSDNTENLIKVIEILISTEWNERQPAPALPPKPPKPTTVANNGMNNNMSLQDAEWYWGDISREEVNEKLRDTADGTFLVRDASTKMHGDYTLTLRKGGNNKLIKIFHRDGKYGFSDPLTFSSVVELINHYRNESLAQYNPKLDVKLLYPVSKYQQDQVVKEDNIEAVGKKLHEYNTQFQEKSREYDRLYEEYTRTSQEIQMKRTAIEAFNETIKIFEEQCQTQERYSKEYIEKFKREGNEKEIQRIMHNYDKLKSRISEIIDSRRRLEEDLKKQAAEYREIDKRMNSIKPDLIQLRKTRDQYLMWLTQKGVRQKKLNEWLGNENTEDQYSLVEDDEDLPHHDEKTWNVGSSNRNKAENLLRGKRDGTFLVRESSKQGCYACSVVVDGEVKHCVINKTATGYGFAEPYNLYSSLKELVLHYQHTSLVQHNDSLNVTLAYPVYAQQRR

SMILES | IC50 (cells) | IC50 (H1047R PIK3CA enzyme)
N#CCc1cc(NC(=O)N2C[C@](O)(C(F)(F)F)c3ccccc32)c2c(c1)C(=O)N[C@@H]2c1cc(F)ccc1Cl (single isomer, unassigned) [Compound I-2605] | < 1000 nM | ≤ 100 nM
O=C(Nc1cc(-c2cnn(-c3ncccn3)c2)cc2c1C(c1cc(F)ccc1Cl)NC2=O)c1cc(F)cc(C(F)(F)F)c1 (centres unmarked) [Compound I-1418] | < 1000 nM | ≤ 100 nM
O=C1NC(c2cc(F)ccc2Cl)c2c(NC(=O)C34CC5CC(C3)CC(C(F)(F)F)(C5)C4)cccc21 (centres unmarked) [Compound I-1073] | < 1000 nM | ≤ 100 nM
O=C(Nc1cc(-c2ncco2)cc2c1C(c1cc(F)ccc1Cl)NC2=O)c1cc(F)cc(C(F)(F)F)c1 (centres unmarked) [Compound I-915] | < 1000 nM | ≤ 100 nM
O=C(Nc1cc(-c2cscn2)cc2c1[C@H](c1cc(F)ccc1Cl)NC2=O)c1cc(F)cc(C(F)(F)F)c1 [Compound I-1084] | < 1000 nM | ≤ 100 nM
O=C1N[C@@H](c2cc(F)ccc2Cl)c2c(NC(=O)N3C[C@@](O)(C(F)(F)F)c4ccccc43)cc(Cl)cc21 (single isomer, unassigned) [Compound I-2509] | < 1000 nM | ≤ 100 nM
CNc1cc(NC(=O)N2C[C@](O)(C(F)(F)F)c3cc(F)ccc32)c2c(n1)C(=O)N[C@@H]2c1cc(F)ccc1Cl (single isomer, unassigned) [Compound I-2644] | < 1000 nM | ≤ 100 nM
NCc1cc(NC(=O)N2C[C@@](O)(C(F)F)c3cc(F)ccc32)c2c(c1)C(=O)N[C@@H]2c1cc(F)ccc1Cl (single isomer, unassigned) [Compound I-2694] | 1000 to 5000 nM | ≤ 100 nM
O=C1N[C@@H](c2cc(F)ccc2Cl)c2c(NC(=O)N3C[C@@H](C(F)F)c4ccccc43)cccc21 (single isomer, unassigned) [Compound I-2334] | 1000 to 5000 nM | ≤ 100 nM
CC(C)(O)c1cc(NC(=O)c2nsc3ccccc23)c2c(c1)C(=O)N[C@H]2c1cc(F)ccc1Cl [Compound I-192] | < 1000 nM | ≤ 100 nM
O=C1N[C@@H](c2cc(F)ccc2Cl)c2c(NC(=O)N3C[C@](O)(C(F)(F)F)c4cc(F)ccc43)cc(Cl)nc21 (single isomer, unassigned) [Compound I-2704] | < 1000 nM | ≤ 100 nM
Cc1ccccc1C1NC(=O)c2cccc(NC(=O)N3CC(C)(C)c4ccccc43)c21 (centres unmarked) [Compound I-45] | 10000 to 36000 nM | 1000 to 10000 nM
Cc1noc2ncc(-c3cc(NC(=O)c4cc(F)cc(C(F)(F)F)c4)c4c(c3)C(=O)NC4c3cc(F)ccc3Cl)cc12 (centres unmarked) [Compound I-1039] | < 1000 nM | ≤ 100 nM
O=C1N[C@H](c2cc(F)ccc2Cl)c2c(NC(=O)N3C[C@H](O)c4cc(F)ccc43)cc(-c3ccc(=O)n(C(F)F)c3)cc21 (single isomer, unassigned) [Compound I-2448] | 1000 to 5000 nM | ≤ 100 nM
[2H][C@@]1(c2cc(F)ccc2Cl)NC(=O)c2cccc(NC(=O)N3C[C@@](O)(C(F)(F)F)c4cc(F)ccc43)c21 (single isomer, unassigned) [Compound I-2682] | < 1000 nM | ≤ 100 nM
N#CCc1cc(NC(=O)N2CC(O)(C(F)(F)F)c3ccccc32)c2c(c1)C(=O)NC2c1cc(F)ccc1Cl (mixture of isomers) [Compound I-2585] | < 1000 nM | ≤ 100 nM
O=C(Nc1cc(-c2cn[nH]c2)cc2c1C(c1cc(F)ccc1Cl)NC2=O)c1cc(F)cc(C(F)(F)F)c1 (centres unmarked) [Compound I-878] | < 1000 nM | ≤ 100 nM
Cc1ccccc1[C@H]1NC(=O)c2cccc(NC(=O)c3csc4c(F)cccc34)c21 [Compound I-38] | 1000 to 5000 nM | 100 to 500 nM
O=C(Nc1cc(-c2cnc3ncnn3c2)cc2c1[C@H](c1cc(F)ccc1Cl)NC2=O)c1cc(F)cc(C(F)(F)F)c1 [Compound I-1024] | < 1000 nM | ≤ 100 nM
O=C(Nc1cc(-c2ccc3ncnn3c2)cc2c1[C@@H](c1cc(Cl)ccc1Cl)NC2=O)c1cc(F)cc(C(F)(F)F)c1 [Compound I-1054] | < 1000 nM | ≤ 100 nM
COCc1cc(NC(=O)c2cc(F)cc(C(F)(F)F)c2)c2c(c1)C(=O)N[C@H]2c1cc(F)ccc1Cl [Compound I-691] | < 1000 nM | ≤ 100 nM
[2H]C1(c2cc(F)ccc2Cl)NC(=O)c2cccc(NC(=O)N3CC(O)(C(F)(F)F)c4cc(F)ccc43)c21 (centres unmarked) [Compound I-2648] | < 1000 nM | ≤ 100 nM
O=C(Nc1cc(-c2cc3cccnc3[nH]2)cc2c1C(c1cc(F)ccc1Cl)NC2=O)c1cc(F)cc(C(F)(F)F)c1 (centres unmarked) [Compound I-972] | < 1000 nM | ≤ 100 nM
Cc1ccccc1C1NC(=O)c2cc(N)cc(NC(=O)c3cc(F)cc(C(F)(F)F)c3)c21 (centres unmarked) [Compound I-40] | 1000 to 5000 nM | ≤ 100 nM
Cn1ccc(-c2cc(NC(=O)c3cc(F)cc(C(F)(F)F)c3)c3c(c2)C(=O)NC3c2cc(F)ccc2Cl)n1 (centres unmarked) [Compound I-947] | < 1000 nM | ≤ 100 nM

SMILES | IC50 (cells) | IC50 (H1047R PIK3CA enzyme)
O=C(Nc1cc(-c2ccc[nH]c2=O)cc2c1C(c1cc(F)ccc1Cl)NC2=O)c1cc(F)cc(C(F)(F)F)c1 (centres unmarked) [Compound I-916] | < 1000 nM | ≤ 100 nM
O=C(Nc1cc(NC2=N[C@H](C(F)(F)F)CO2)cc2c1[C@H](c1cc(F)ccc1Cl)NC2=O)c1cc(F)cc(C(F)(F)F)c1 (single isomer, unassigned) [Compound I-2387] | 1000 to 5000 nM | ≤ 100 nM
O=C(Nc1cc(-c2ccc3ncnn3c2)cc2c1[C@H](c1cc(F)ccc1Cl)NC2=O)c1cc(F)cc(C(F)(F)F)c1 (single isomer, unassigned) [Compound I-945] | < 1000 nM | ≤ 100 nM
O=C(Nc1cc(-c2nccs2)cc2c1C(c1cc(F)ccc1Cl)NC2=O)c1cc(F)cc(C(F)(F)F)c1 (centres unmarked) [Compound I-921] | < 1000 nM | ≤ 100 nM
O=C(Nc1cc(-c2cc3cnccc3[nH]2)cc2c1C(c1cc(F)ccc1Cl)NC2=O)c1cc(F)cc(C(F)(F)F)c1 (centres unmarked) [Compound I-949] | 1000 to 5000 nM | ≤ 100 nM
Cn1nccc1CNc1cc(NC(=O)c2cc(F)cc(C(F)(F)F)c2)c2c(c1)C(=O)NC2c1cc(F)ccc1Cl (centres unmarked) [Compound I-1082] | < 1000 nM | ≤ 100 nM
O=C1N[C@H](c2cc(F)ccc2C(F)F)c2c(NC(=O)c3nsc4ccccc34)cccc21 [Compound I-167] | 1000 to 5000 nM | ≤ 100 nM
COc1cccc(-c2cc(NC(=O)c3cc(F)cc(C(F)(F)F)c3)c3c(c2)C(=O)N[C@H]3c2cc(F)ccc2Cl)n1 (stereo in doubt) [Compound I-1006] | < 1000 nM | ≤ 100 nM
C=Cc1cc(NC(=O)c2csc3ccccc23)c2c(c1)C(=O)NC2c1ccccc1C (centres unmarked) [Compound I-100, N-[6-Ethenyl-3-(2-methylphenyl)-1-oxo-2,3-dihydro-1H-isoindol-4-yl]-1-benzothiophene-3-carboxamide] | 5000 to 10000 nM | ≤ 100 nM
NCc1cc(NC(=O)N2CC(O)(C(F)F)c3cc(F)ccc32)c2c(c1)C(=O)NC2c1cc(F)ccc1Cl (centres unmarked) [Compound I-2597] | 10000 to 36000 nM | ≤ 100 nM
COCCc1cc(NC(=O)c2cc(F)cc(C(F)(F)F)c2)c2c(c1)C(=O)NC2c1cc(F)ccc1Cl (centres unmarked) [Compound I-1020] | < 1000 nM | ≤ 100 nM
O=C(Nc1cc(-c2ccc3ncnn3c2)cc2c1C(c1cc(F)ccc1C(F)F)NC2=O)c1cc(F)cc(C(F)(F)F)c1 (centres unmarked) [Compound I-1057] | < 1000 nM | ≤ 100 nM
CNc1cc(NC(=O)N2C[C@](O)(C(F)(F)F)c3cc(F)ccc32)c2c(c1C#N)C(=O)N[C@@H]2c1cc(F)ccc1Cl (single isomer, unassigned) [Compound I-2609] | < 1000 nM | ≤ 100 nM
O=C(Nc1cc(-c2cn3ncnc3cn2)cc2c1[C@H](c1cc(F)ccc1C(F)F)NC2=O)c1cc(F)cc(Cl)c1 (single isomer, unassigned) [Compound I-2259] | < 1000 nM | ≤ 100 nM
Cc1ccccc1C1NC(=O)c2cc(N)cc(NC(=O)c3csc4ccccc34)c21 (centres unmarked) [Compound I-34] | 1000 to 5000 nM | ≤ 100 nM
O=C1N[C@H](c2cc(F)ccc2Cl)c2c(NC(=O)N3C[C@@](O)(C(F)(F)F)c4cc(F)ccc43)cc(N3CCOC3=O)cc21 (single isomer, unassigned) [Compound I-2673] | < 1000 nM | ≤ 100 nM
C[C@]1(O)CN(C(=O)Nc2cccc3c2[C@H](c2cc(F)ccc2Cl)NC3=O)c2ccccc21 (single isomer, unassigned) [Compound I-2205] | < 1000 nM | ≤ 100 nM
Cc1ccccc1C1NC(=O)c2cccc(NC(=O)c3nsc4ccccc34)c21 (centres unmarked) [Compound I-13, N-(1-Oxo-3-(o-tolyl)isoindolin-4-yl)benzo[d]isothiazole-3-carboxamide] | 1000 to 5000 nM | 100 to 500 nM
Cn1ccnc1Nc1cc(NC(=O)c2cc(F)cc(C(F)(F)F)c2)c2c(c1)C(=O)NC2c1cc(F)ccc1Cl (centres unmarked) [Compound I-1075] | < 1000 nM | ≤ 100 nM
Cc1ccccc1C1NC(=O)c2cccc(NC(=O)c3csc4ccccc34)c21 (centres unmarked) [Compound I-1, N-(1-Oxo-3-(o-tolyl)isoindolin-4-yl)benzo[b]thiophene-3-carboxamide] | 1000 to 5000 nM | 100 to 500 nM
N#CC1(C(=O)Nc2cc(NC(=O)c3cc(F)cc(C(F)(F)F)c3)c3c(c2)C(=O)NC3c2cc(F)ccc2Cl)CNC1 (centres unmarked) [Compound I-2149] | 10000 to 36000 nM | ≤ 100 nM
CC(C)(O)c1cc(NC(=O)c2cc(F)cc(C(F)(F)F)c2)c2c(c1)C(=O)N[C@H]2c1cc(F)ccc1Cl [Compound I-189] | < 1000 nM | ≤ 100 nM
CC[C@@]1(O)CN(C(=O)Nc2cccc3c2[C@@H](c2cc(F)ccc2Cl)NC3=O)c2ccc(F)cc21 (single isomer, unassigned) [Compound I-2461] | < 1000 nM | ≤ 100 nM
O=C(Nc1cc(-c2cn[nH]c2)cc2c1[C@H](c1cc(F)ccc1Cl)NC2=O)c1cc(F)cc(C(F)(F)F)c1 [Compound I-1078] | < 1000 nM | ≤ 100 nM
